Reference: patent US6683157B2, “Variant human α7 acetylcholine receptor subunit, and methods of production and use thereof” (priority 1996, dated 2004)
“Also recorded” adds a separate entry of the source. Where a name gives a salt, the structure may show the parent alone. Read-outs that look alike come from different tables or passages of the source.

Key:
human α7V274T nAChR [1] = biological target: T1, human α7V274T nAChR (Homo sapiens, UniProt P36544, V274T); test: Agonist concentration-response, two-electrode voltage-clamp in Xenopus laevis oocytes; format: cell-based
T1 construct: This created a new cDNA encoding a full length α7 subunit; expressed in transfected cells

human α7 wild type nAChR [2] = biological target: T2, human α7 wild type nAChR (Homo sapiens, UniProt P36544); test: as above; format: cell-based; conditions: for Hill coefficient: Hill equation fit
T2 construct: This created a new cDNA encoding a full length α7 subunit; expressed in transfected cells; host or cells: Xenopus laevis oocytes injected with receptor RNA or DNA

chick α7V251T nAChR [3] = conditions: cited from earlier work
chick α7 nAChR = chick α7 nAChR (Gallus gallus, UniProt P22770); conditions: cited from earlier work
human α7 nAChR = human α7 nAChR (Homo sapiens, UniProt P36544); conditions: cited from earlier work
human α7V274T nAChR [4] = biological target: T1, human α7V274T nAChR; test: nAChR antagonists applied alone as agonists, current response in Xenopus oocytes; format: cell-based; conditions: for % Activation, 10 μM ACh: compared to activation by 10 μM ACh, ligand μM: DHβE 10, d-TC 1, MLA 0.01, MEC 10, ATROP 2, mean ± s.e.m. (n)
human α7 wild type nAChR [5] = biological target: T2, human α7 wild type nAChR; test: as above; format: cell-based; conditions: ligand μM: DHβE 10, d-TC 1, MLA 0.01, MEC 10, ATROP 2
human α7V274T nAChR [6] = biological target: T1, human α7V274T nAChR; test: Inhibition of the response to ACh in Xenopus oocytes; format: cell-based; conditions: for inhibition of ACh response: MEC 10 μM against 1 μM ACh in three of the five oocytes inhibited by atropine; for % Inhibition, 1 μM ACh: inhibition of response to 1 μM ACh; for % Inhibition, 1 μM ACh / % Inhibition, 10 μM ACh: ligand μM: DHβE 10, d-TC 1, MLA 0.01, MEC 10, ATROP 2; for % Inhibition, 10 μM ACh: inhibition of response to 10 μM ACh
human α7 wild type nAChR [7] = biological target: T2, human α7 wild type nAChR; test: as above; format: cell-based; conditions: ligand μM: DHβE 10, d-TC 1, MLA 0.01, MEC 10, ATROP 2; for % Inhibition, % of 200 μM ACh: inhibition of response to 200 μM ACh; for % Inhibition, % of 10 mM ACh: inhibition of response to 10 mM ACh
chick α7L247T nAChR = chick α7L247T nAChR (Gallus gallus, UniProt P22770, L270T); conditions: cited from earlier work
chick α7V251T nAChR [8] = biological target: chick α7V251T nAChR (Gallus gallus, UniProt P22770, V274T); conditions: 10 μM DHβE; cited from earlier work

| SMILES | Hill coefficient (human α7V274T nAChR [1]; Hill equation fit) | % Activation, 10 μM ACh (human α7V274T nAChR [4]) | % Activation, % of 10 mM ACh (human α7 wild type nAChR [5]) | % Inhibition, 1 μM ACh (human α7V274T nAChR [6]) | % Inhibition, 10 μM ACh (human α7V274T nAChR [6]) | % Inhibition, % of 200 μM ACh (human α7 wild type nAChR [7]) | % Inhibition, % of 10 mM ACh (human α7 wild type nAChR [7]) | other results |
| --- | --- | --- | --- | --- | --- | --- | --- | --- |
| CC(=O)OCC[N+](C)(C)C [ACh, Acetylocholine chloride] | 1.8±0.2 |  |  |  |  |  |  | Hill coefficient (human α7 wild type nAChR [2]): 0.94±0.09; increase in ACh potency versus chick α7 wild type (chick α7V251T nAChR [3]): 180 fold |
| COc1ccc(/C=C2\CCCN=C2c2cccnc2)c(OC)c1 [GTS-21] | 1.5±0.1 |  |  |  |  |  |  | agonist type (human α7V274T nAChR [1]): full agonist; EC50 (human α7V274T nAChR [1]; peak amplitude normalized to ACh response, Hill equation fit, holding potential −60 mV): 4.3 ± 0.3 µM; agonist type (human α7 wild type nAChR [2]): partial agonists |
| CN1CCCC1c1cccnc1 (single isomer, unassigned; (-)) [(−)-nicotine] | 1.3±0.2 |  |  |  |  |  |  | Hill coefficient (human α7 wild type nAChR [2]): 1.2±0.2 |
| Cc1ncccc1OC[C@@H]1CCCN1 [ABT-089] |  |  |  |  |  |  |  | EC50 (human α7V274T nAChR [1]): 28 ± 3 µM; efficacy (human α7V274T nAChR [1]; responses normalized to the response to ACh): 40±1%; agonist type (human α7 wild type nAChR [2]): partial agonists |
| C[N+]1(C)CCN(c2ccccc2)CC1 [DMPP, 1,1-dimethyl-4-phenylpiperazinium] |  |  |  |  |  |  |  | agonist type (chick α7 nAChR): very weak partial agonist; agonist type (human α7 nAChR): highly efficacious agonist |
| COc1cc2c3cc1Oc1cc(ccc1O)C[C@@H]1c4c(cc(OC)c(O)c4Oc4ccc(cc4)C[C@@H]3N(C)CC2)CC[N+]1(C)C.Cl.O.O.O.O.O.[Cl-] [d-TC, d-tubocurarine chloride] |  | −2 ± 1 (4) % | −0.1 ± 0.1 (5) % | 99 ± 1 (4) % | 97 ± 3 (3) % | 28 ± 2 (4) % | 25 ± 3 (4) % | outward current amplitude, % of the maximal inward current response to ACh (human α7V274T nAChR [4]; MLA 10 nM, MEC 10 μM, d-TC 1 μM (d-TC in two of four oocytes)): 3-5%; current response to ligand alone (human α7V274T nAChR [4]; d-TC 1 μM, atropine 2 μM): did not elicit agonist-like inward currents; also recorded: did not activate inward currents; inhibition of ACh response (human α7V274T nAChR [6]): potent antagonist; activation of inward current (chick α7L247T nAChR): full response |
| CNC1(C)C2CCC(C2)C1(C)C (centres unmarked) [MEC, mecamylamine hydrochloride] |  | −1.9 ± 0.2 (4) % | −0.3 ± 0.2 (3) % | 101 ± 1 (4) % | 53 ± 2 (4) % | 82 ± 1 (3) % | 85 ± 3 (3) % | inhibition of ACh response (human α7V274T nAChR [6]): completely blocked |
| Br.CO[C@H]1CC=C2CCN3CCC4=C(CC(=O)OC4)[C@]23C1 [DHβE, Dihydro-β-erythroidine hydrobromide] |  | 4 ± 1 (4) % | −0.2 ± 0.1 (5) % | 69 ± 5 (4) % | 52 ± 6 (4) % | 41 ± 10 (4) % | 23 ± 2 (4) % | response as % of the ACh response (chick α7V251T nAChR [8]): 66% |
